Tests used:
[1] = system: IFNγ-induced NO production in Raw 264.7 cells; test: Nitric oxide assay: suppression of IFNγ-induced NO production (Griess nitrite, adjusted to live cell numbers); assay type: cell-based; conditions: Mus musculus, RAW264.7, 2 h pretreatment, IFNγ 10 ng/ml for 24 hours
Protocol: Raw 264.7 cells were seeded in 96-well plates at a density of 30, 000 cells per well in DMEM+10% FBS and incubated overnight. The next day, cell media was replaced by DMEM+2% FBS. Cells were pretreated with DMSO or test compounds (top dose 100 nM, 1:4 serial dilution, 10-point) for 2 hours and then treated with recombinant mouse IFNγ (R&D, Cat# 485-MI-100) at a final concentration of 10 ng/ml for 24 hours. Nitrite levels were measured in culture media as a surrogate for nitric oxide using the Griess Reagent System (Promega, Cat# G2930). Cell viability was determined using CellTiter Glo reagents (Promega, Cat#G7572). The nitrite levels were adjusted to live cell numbers and inhibition percentage was calculated. The inhibition percentage was then plotted against compound concentration, and IC50 values were calculated using four-parameter algorithm in Graphpad Prism.

CYP2C9 = target: T1, CYP2C9 (Homo sapiens, UniProt P11712); test: CYP450 enzyme inhibition in liver microsomes (cocktail probe incubation); assay type: in vitro ADME; conditions: species not given, 0.05-50 μM tested
T1 construct: studied in liver microsomes of CD-1 mouse, Sprague Dawley rat, Beagle dog, cynomolgus monkey, and human; from tissue; host or cells: liver microsomes
Protocol: (§1) The inhibition potential of test compounds towards major drug metabolizing CYP450 enzymes was studied in liver microsomes of CD-1 mouse, Sprague Dawley rat, Beagle dog, cynomolgus monkey, and human. The inhibition of CYP1A2, CYP2C9, CYP2C19, CYP2D6, and CYP3A4 was assessed using CYP450 specific probe reactions in a cocktail incubation. Seven concentrations of test compounds (0.05, 0.15, 0.5, 1.5, 5, 15, and 50 μM) were evaluated. In addition, known inhibitors for each probe reaction were included as positive controls and incubated at a single concentration above their respective IC50.

CYP2C19 = target: T2, CYP2C19 (Homo sapiens, UniProt P33261); test: as above; assay type: in vitro ADME; conditions: species not given, 0.05-50 μM tested
T2 construct: studied in liver microsomes of CD-1 mouse, Sprague Dawley rat, Beagle dog, cynomolgus monkey, and human; from tissue; host or cells: liver microsomes
Protocol: as §1

CYP1A2 = target: T3, CYP1A2 (Homo sapiens, UniProt P05177); test: as above; assay type: in vitro ADME; conditions: species not given, 0.05-50 μM tested
T3 construct: studied in liver microsomes of CD-1 mouse, Sprague Dawley rat, Beagle dog, cynomolgus monkey, and human; from tissue; host or cells: liver microsomes
T3 sequence (P05177 1-516): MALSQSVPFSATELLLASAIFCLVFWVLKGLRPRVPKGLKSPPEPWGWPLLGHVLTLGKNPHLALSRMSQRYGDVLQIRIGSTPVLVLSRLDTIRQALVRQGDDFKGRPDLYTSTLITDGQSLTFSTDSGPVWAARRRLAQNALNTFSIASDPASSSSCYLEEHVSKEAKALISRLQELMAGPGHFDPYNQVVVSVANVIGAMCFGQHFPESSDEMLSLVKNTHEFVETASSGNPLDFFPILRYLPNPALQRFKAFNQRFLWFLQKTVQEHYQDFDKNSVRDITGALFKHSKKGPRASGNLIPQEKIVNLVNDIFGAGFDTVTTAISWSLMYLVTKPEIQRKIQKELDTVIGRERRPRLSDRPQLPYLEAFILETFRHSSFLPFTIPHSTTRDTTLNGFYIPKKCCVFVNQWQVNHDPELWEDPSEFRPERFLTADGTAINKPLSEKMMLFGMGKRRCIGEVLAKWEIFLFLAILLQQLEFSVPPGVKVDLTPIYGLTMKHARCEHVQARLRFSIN
Protocol: as §1

CYP2D6 = target: T4, CYP2D6 (Homo sapiens, UniProt P10635); test: as above; assay type: in vitro ADME; conditions: species not given, 0.05-50 μM tested
T4 construct: studied in liver microsomes of CD-1 mouse, Sprague Dawley rat, Beagle dog, cynomolgus monkey, and human; from tissue; host or cells: liver microsomes
Protocol: as §1

CYP3A4 = target: T5, CYP3A4 (Homo sapiens, UniProt P08684); test: as above; assay type: in vitro ADME; conditions: species not given, 0.05-50 μM tested
T5 construct: studied in liver microsomes of CD-1 mouse, Sprague Dawley rat, Beagle dog, cynomolgus monkey, and human; from tissue; host or cells: liver microsomes
Protocol: as §1

T1 sequence (P11712 whole entry): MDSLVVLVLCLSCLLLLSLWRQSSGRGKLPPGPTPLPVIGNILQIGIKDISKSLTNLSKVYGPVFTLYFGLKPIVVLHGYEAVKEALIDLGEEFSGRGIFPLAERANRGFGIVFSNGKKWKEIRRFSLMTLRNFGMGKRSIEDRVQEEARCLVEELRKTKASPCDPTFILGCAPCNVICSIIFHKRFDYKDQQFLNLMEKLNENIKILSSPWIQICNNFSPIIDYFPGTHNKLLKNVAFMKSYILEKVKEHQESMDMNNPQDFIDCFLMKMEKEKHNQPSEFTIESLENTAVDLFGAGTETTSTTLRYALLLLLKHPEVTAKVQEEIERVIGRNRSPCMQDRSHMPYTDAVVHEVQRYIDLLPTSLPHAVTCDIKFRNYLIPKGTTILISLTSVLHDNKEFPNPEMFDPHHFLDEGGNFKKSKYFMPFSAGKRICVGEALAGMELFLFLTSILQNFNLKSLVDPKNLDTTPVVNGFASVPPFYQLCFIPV
T2 sequence (P33261 whole entry): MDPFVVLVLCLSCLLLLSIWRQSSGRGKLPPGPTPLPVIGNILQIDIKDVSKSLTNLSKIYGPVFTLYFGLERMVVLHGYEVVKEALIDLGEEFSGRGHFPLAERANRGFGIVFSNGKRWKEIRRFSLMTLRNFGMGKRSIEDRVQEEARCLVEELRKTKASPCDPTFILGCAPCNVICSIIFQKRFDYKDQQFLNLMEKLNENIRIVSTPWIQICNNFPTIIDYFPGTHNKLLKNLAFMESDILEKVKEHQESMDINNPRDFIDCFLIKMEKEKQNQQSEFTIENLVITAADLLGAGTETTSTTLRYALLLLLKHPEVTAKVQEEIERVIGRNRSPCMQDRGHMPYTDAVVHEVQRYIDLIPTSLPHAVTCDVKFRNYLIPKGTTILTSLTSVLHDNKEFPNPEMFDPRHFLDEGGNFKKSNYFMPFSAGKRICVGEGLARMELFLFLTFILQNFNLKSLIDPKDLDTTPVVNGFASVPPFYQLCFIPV
T5 sequence (P08684 whole entry): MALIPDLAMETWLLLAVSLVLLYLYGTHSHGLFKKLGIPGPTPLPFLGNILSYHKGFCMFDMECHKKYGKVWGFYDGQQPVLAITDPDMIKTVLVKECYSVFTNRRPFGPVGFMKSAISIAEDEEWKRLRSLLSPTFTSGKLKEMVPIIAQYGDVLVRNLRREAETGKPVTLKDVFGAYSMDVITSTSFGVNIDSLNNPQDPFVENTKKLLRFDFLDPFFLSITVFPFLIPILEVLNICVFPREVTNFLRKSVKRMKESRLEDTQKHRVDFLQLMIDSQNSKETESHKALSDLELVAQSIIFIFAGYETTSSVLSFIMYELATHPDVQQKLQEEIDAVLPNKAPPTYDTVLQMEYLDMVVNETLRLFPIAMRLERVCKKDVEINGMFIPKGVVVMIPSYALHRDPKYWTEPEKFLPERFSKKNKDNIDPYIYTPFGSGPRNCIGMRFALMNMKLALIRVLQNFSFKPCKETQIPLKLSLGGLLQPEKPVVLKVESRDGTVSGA
T4 sequence (P10635 whole entry): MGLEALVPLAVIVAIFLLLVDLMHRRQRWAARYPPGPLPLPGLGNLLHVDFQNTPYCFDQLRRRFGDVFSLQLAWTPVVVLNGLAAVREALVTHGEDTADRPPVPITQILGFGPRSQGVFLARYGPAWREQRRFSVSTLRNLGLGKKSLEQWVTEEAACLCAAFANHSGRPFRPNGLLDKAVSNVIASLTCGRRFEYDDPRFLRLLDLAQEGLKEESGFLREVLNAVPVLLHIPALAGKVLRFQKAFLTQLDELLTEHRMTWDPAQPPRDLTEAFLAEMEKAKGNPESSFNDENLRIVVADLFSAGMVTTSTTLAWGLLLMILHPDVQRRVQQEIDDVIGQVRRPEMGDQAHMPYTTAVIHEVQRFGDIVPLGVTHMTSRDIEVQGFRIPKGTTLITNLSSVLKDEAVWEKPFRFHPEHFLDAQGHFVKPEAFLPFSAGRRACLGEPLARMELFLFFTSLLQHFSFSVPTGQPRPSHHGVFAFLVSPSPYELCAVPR

SMILES	IC50 [1] [µM]	IC50 (CYP2C9) [µM]	IC50 (CYP2C19) [µM]	IC50 (CYP1A2) [µM]	IC50 (CYP2D6) [µM]	IC50 (CYP3A4) [µM]
Cc1cnc([C@@]2(C)CC[C@]3(C)CC[C@]4(C)[C@H](C(=O)C=C5[C@@]6(C)C=C(C#N)C(=O)C(C)(C)[C@@H]6CC[C@]54C)[C@@H]3C2)o1 [Example 7, (4aR,6aS,6bR,8aS,11S,12aS,12bR,14bS)-4,4,6a,6b,8a,11,14b-heptamethyl-11-(5-methyloxazol-2-yl)-3,13-dioxo-3,4,4a,5,6,6a,6b,7,8,8a,9,10,11,12,12a,12b,13,14b-octadecahydropicene-2-carbonitrile]	< 0.01	2	9.4	> 50	10.1	0.8
CNC(=O)c1nnc([C@@]2(C)CC[C@]3(C)CC[C@]4(C)[C@H](C(=O)C=C5[C@@]6(C)C=C(C#N)C(=O)C(C)(C)[C@@H]6CC[C@]54C)[C@@H]3C2)o1 [Example 24, 5-((2S,4aS,6aR,6bS,8aR,12aS,14aR,14bS)-11-cyano-2,4a,6a,6b,9,9,12a-heptamethyl-10,14-dioxo-1,2,3,4,4a,5,6,6a,6b,7,8,8a,9,10,12a,14,14a,14b-octadecahydropicen-2-yl)-N-methyl-1,3,4-oxadiazole-2-carboxamide]	< 0.01	0.6	2.8	> 50	4	0.5
CC1(C)C(=O)C(C#N)=C[C@]2(C)C3=CC(=O)[C@@H]4[C@@H]5C[C@@](C)(c6nnc(C(F)(F)F)o6)CC[C@]5(C)CC[C@@]4(C)[C@]3(C)CC[C@@H]12 [Example 10, (4aR,6aS,6bR,8aS,11S,12aS,12bR,14bS)-4,4,6a,6b,8a,11,14b-heptamethyl-3,13-dioxo-11-(5-(trifluoromethyl)-1,3,4-oxadiazol-2-yl)-3,4,4a,5,6,6a,6b,7,8,8a,9,10,11,12,12a,12b,13,14b-octadecahydropicene-2-carbonitrile]	< 0.01	1.8	27.5	> 50	> 50	1.3
CC1(C)C(=O)C(C#N)=C[C@]2(C)C3=CC(=O)[C@@H]4[C@@H]5C[C@@](C)(N6CCCC6)CC[C@]5(C)CC[C@@]4(C)[C@]3(C)CC[C@@H]12 [Example 21, (4aR,6aS,6bR,8aS,11S,12aS,12bR,14bS)-4,4,6a,6b,8a,11,14b-heptamethyl-3,13-dioxo-11-(pyrrolidin-1-yl)-3,4,4a,5,6,6a,6b,7,8,8a,9,10,11,12,12a,12b,13,14b-octadecahydropicene-2-carbonitrile]	0.01 to 0.1	–	–	–	–	–
CC1(C)C(=O)C(C#N)=C[C@]2(C)C3=CC(=O)[C@@H]4[C@@H]5C[C@@](C)(c6nc(-c7ccccc7)n[nH]6)CC[C@]5(C)CC[C@@]4(C)[C@]3(C)CC[C@@H]12 [Example 8, (4aR,6aS,6bR,8aS,11S,12aS,12bR,14bS)-4,4,6a,6b,8a,11,14b-heptamethyl-3,13-dioxo-11-(3-phenyl-1H-1,2,4-triazol-5-yl)-3,4,4a,5,6,6a,6b,7,8,8a,9,10,11,12,12a,12b,13,14b-octadecahydropicene-2carbonitrile]	0.01 to 0.1	–	–	–	–	–
C[C@H](O)c1nnc([C@@]2(C)CC[C@]3(C)CC[C@]4(C)[C@H](C(=O)C=C5[C@@]6(C)C=C(C#N)C(=O)C(C)(C)[C@@H]6CC[C@]54C)[C@@H]3C2)o1 [Example 23, (4aR,6aS,6bR,8aS,11S,12aS,12bR,14bS)-11-(5-((S)-1-hydroxyethyl)-1,3,4-oxadiazol-2-yl)-4,4,6a,6b,8a,11,14b-heptamethyl-3,13-dioxo-3,4,4a,5,6,6a,6b,7,8,8a,9,10,11,12,12a,12b,13,14b-octadecahydropicene-2-carbonitrile]	0.01 to 0.1	1.5	11.8	> 50	15.8	0.9
CC1(C)C(=O)C(C#N)=C[C@]2(C)C3=CC(=O)[C@@H]4[C@@H]5C[C@@](C)(c6nnc(N)o6)CC[C@]5(C)CC[C@@]4(C)[C@]3(C)CC[C@@H]12 [Example 27, (4aR,6aS,6bR,8aS,11S,12aS,12bR,14bS)-11-(5-amino-1,3,4-oxadiazol-2-yl)-4,4,6a,6b,8a,11,14b-heptamethyl-3,13-dioxo-3,4,4a,5,6,6a,6b,7,8,8a,9,10,11,12,12a,12b,13,14b-octadecahydropicene-2-carbonitrile]	0.01 to 0.1	–	–	–	–	–
CC1(C)C(=O)C(C#N)=C[C@]2(C)C3=CC(=O)[C@@H]4[C@@H]5C[C@@](C)(c6nnc(C7CC7)o6)CC[C@]5(C)CC[C@@]4(C)[C@]3(C)CC[C@@H]12 [Example 16, (4aR,6aS,6bR,8aS,11S,12aS,12bR,14bS)-11-(5-cyclopropyl-1,3,4-oxadiazol-2-yl)-4,4,6a,6b,8a,11,14b-heptamethyl-3,13-dioxo-3,4,4a,5,6,6a,6b,7,8,8a,9,10,11,12,12a,12b,13,14b-octadecahydropicene-2-carbonitrile]	< 0.01	2	7.4	> 50	14.7	1.5
CC1(C)C(=O)C(C#N)=C[C@]2(C)C3=CC(=O)[C@@H]4[C@@H]5C[C@@](C)(c6ncco6)CC[C@]5(C)CC[C@@]4(C)[C@]3(C)CC[C@@H]12 [Example 6, (4aR,6aS,6bR,8aS,11S,12aS,12bR,14bS)-4,4,6a,6b,8a,11,14b-heptamethyl-11-(oxazol-2-yl)-3,13-dioxo-3,4,4a,5,6,6a,6b,7,8,8a,9,10,11,12,12a,12b,13,14b-octadecahydropicene-2-carbonitrile]	< 0.01	2.1	5.6	> 50	6.9	0.5
CC1(C)C(=O)C(C#N)=C[C@]2(C)C3=CC(=O)[C@@H]4[C@@H]5C[C@@](C)(n6cnnc6)CC[C@]5(C)CC[C@@]4(C)[C@]3(C)CC[C@@H]12 [Example 17, (4aR,6aS,6bR,8aS,11S,12aS,12bR,14bS)-4,4,6a,6b,8a,11,14b-heptamethyl-3,13 dioxo-11-(4H-1,2,4-triazol-4-yl)-3,4,4a,5,6,6a,6b,7,8,8a,9,10,11,12,12a,12b,13,14b-octadecahydropicene-2-carbonitrile]	–	2.2	16.9	> 50	35.4	0.1
CC1(C)C(=O)C(C#N)=C[C@]2(C)C3=CC(=O)[C@@H]4[C@@H]5C[C@@](C)(N6CCOCC6)CC[C@]5(C)CC[C@@]4(C)[C@]3(C)CC[C@@H]12 [Example 11, (4aR,6aS,6bR,8aS,11S,12aS,12bR,14bS)-4,4,6a,6b,8a,11,14b-heptamethyl-11-morpholino-3,13-dioxo-3,4,4a,5,6,6a,6b,7,8,8a,9,10,11,12,12a,12b,13,14b-octadecahydropicene-2-carbonitrile]	< 0.01	2.2	14.6	> 50	> 50	0.5

Reference: patent US20220017566A1, “TERPINOID DERIVATIVES AND USES THEREOF” (SICHUAN HAISCO PHARMACEUTICAL CO., LTD., priority 2018, published 2022)
